This note sets out measurements from ChEMBL document CHEMBL3991601, “The target landscape of clinical kinase drugs” (Science, 2017).

The target in assay [1] is T1, Peroxisomal acyl-coenzyme A oxidase 3 (Homo sapiens, UniProt O15254).
T1 sequence (O15254 whole entry): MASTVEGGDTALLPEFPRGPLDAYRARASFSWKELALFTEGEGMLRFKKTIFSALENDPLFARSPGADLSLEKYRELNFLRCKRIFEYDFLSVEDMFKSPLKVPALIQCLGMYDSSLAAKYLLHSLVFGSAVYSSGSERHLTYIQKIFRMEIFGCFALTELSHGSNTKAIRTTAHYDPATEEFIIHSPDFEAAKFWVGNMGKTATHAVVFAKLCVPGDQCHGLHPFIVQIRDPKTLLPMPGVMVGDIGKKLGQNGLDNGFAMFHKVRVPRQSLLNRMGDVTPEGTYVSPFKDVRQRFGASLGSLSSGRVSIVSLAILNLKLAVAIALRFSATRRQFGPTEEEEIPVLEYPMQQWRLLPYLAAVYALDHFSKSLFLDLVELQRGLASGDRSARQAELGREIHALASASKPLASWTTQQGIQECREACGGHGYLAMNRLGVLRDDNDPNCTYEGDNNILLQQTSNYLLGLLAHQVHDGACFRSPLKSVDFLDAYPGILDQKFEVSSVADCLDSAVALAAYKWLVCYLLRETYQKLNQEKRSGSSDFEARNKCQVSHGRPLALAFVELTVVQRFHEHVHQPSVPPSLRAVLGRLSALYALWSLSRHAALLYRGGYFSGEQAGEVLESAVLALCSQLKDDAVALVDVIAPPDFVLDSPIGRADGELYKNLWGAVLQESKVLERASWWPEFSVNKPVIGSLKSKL

Assay [2] concerns the target Serine/threonine-protein kinase B-raf (Homo sapiens, UniProt P15056).
Assay [3] concerns the target Serine/threonine-protein kinase MRCK alpha (Homo sapiens, UniProt Q5VT25).
Assay [4] concerns the target Tyrosine-protein kinase Fer (Homo sapiens, UniProt P16591).
Assay [5] addresses Mitogen-activated protein kinase 9 (Homo sapiens, UniProt P45984).
Assay [6] addresses T2, Serine/threonine-protein kinase Nek9 (Homo sapiens, UniProt Q8TD19).
T2 sequence (Q8TD19 whole entry): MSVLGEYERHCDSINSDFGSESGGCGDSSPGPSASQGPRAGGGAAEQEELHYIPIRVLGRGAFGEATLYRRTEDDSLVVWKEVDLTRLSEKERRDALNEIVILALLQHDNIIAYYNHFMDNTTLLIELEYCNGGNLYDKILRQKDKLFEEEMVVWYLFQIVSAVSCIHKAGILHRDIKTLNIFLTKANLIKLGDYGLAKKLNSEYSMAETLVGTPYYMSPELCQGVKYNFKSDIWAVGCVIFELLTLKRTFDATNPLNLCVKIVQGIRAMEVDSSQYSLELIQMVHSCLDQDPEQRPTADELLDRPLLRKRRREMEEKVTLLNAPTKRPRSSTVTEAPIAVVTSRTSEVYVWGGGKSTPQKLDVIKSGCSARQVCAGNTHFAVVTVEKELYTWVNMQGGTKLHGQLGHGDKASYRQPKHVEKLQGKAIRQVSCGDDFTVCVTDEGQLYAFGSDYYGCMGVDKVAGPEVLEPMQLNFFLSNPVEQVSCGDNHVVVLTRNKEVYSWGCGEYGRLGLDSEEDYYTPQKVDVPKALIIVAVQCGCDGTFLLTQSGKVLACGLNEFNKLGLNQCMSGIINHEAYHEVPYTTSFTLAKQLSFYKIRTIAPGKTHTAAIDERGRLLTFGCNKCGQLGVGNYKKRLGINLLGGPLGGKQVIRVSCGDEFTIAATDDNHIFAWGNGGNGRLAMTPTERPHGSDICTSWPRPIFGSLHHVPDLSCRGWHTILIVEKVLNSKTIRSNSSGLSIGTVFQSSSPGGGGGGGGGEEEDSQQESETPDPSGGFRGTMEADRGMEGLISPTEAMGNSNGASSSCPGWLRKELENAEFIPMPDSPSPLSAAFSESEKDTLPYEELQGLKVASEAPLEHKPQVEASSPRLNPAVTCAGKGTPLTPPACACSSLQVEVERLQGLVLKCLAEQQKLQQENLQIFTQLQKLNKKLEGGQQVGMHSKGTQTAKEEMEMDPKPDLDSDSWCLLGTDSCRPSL

The target of assay [7] is cAMP-dependent protein kinase catalytic subunit gamma (Homo sapiens, UniProt P22612).
Chain of cAMP-dependent protein kinase catalytic subunit gamma (P22612 whole entry): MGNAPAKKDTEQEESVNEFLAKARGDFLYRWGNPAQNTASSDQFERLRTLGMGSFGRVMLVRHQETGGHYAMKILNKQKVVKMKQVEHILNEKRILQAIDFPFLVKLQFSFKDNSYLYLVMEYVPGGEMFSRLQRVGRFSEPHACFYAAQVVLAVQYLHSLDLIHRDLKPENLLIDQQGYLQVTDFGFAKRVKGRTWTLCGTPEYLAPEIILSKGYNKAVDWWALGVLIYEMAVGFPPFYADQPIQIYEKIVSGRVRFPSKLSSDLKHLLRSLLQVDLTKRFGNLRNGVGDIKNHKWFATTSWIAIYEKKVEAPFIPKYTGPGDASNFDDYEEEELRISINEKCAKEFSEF
Assay [8] has as its target Protein kinase C beta type (Homo sapiens, UniProt P05771).
Assay [9] deals with Receptor-interacting serine/threonine-protein kinase 3 (Homo sapiens, UniProt Q9Y572).
Chain of Receptor-interacting serine/threonine-protein kinase 3 (Q9Y572 whole entry): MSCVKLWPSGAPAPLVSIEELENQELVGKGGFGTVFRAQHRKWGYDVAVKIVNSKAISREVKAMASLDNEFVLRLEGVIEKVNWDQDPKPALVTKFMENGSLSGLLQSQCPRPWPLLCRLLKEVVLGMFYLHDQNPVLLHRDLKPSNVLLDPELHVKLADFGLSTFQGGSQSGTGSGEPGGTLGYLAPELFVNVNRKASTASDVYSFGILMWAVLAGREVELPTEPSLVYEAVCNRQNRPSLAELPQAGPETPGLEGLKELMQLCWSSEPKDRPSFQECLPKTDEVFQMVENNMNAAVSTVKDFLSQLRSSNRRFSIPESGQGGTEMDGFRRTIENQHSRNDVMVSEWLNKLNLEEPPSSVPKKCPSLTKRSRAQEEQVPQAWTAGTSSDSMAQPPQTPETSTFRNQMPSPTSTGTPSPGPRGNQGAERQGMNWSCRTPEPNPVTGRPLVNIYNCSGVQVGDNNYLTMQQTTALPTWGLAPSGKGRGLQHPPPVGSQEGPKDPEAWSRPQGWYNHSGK
The target in assay [10] is Serine/threonine-protein kinase 10 (Homo sapiens, UniProt O94804).
Another assay addresses T3, TGF-beta receptor type-1 (Homo sapiens, UniProt P36897).
T3 sequence (P36897 whole entry): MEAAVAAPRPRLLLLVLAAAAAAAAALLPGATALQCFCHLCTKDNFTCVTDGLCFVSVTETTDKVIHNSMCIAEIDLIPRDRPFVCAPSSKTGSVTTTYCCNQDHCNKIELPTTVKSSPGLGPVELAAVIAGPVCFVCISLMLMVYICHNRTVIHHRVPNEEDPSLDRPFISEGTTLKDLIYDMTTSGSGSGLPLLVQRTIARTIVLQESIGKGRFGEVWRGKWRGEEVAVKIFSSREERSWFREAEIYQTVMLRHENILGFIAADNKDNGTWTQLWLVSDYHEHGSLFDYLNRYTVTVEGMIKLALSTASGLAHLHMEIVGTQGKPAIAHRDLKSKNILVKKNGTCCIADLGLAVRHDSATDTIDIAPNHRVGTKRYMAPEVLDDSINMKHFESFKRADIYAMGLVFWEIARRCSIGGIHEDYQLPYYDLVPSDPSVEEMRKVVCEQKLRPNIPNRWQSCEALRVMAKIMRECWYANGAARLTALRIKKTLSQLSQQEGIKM

Assay [11] concerns the target Mitogen-activated protein kinase kinase kinase 20 (Homo sapiens, UniProt Q9NYL2).

Activity calls are given as the source filed them. Cut-off read from the data, not from the text of the source, for most assays here: actives have a measured Kd and inactives only a lower limit.
Note: in the data inactive means no Kd found up to 30 µM.

Chain of Mitogen-activated protein kinase 9 (P45984 whole entry): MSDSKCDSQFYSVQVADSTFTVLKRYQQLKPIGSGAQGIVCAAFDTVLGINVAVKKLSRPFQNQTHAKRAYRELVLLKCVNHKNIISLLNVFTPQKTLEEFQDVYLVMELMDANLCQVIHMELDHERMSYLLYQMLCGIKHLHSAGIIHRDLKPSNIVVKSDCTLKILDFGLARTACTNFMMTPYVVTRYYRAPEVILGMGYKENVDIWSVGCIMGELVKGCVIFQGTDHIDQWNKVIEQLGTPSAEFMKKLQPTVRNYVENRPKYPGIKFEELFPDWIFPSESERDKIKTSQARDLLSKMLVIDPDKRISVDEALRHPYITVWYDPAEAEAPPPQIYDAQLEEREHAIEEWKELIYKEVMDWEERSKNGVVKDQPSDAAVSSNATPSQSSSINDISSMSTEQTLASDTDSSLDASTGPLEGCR
Chain of Serine/threonine-protein kinase MRCK alpha (Q5VT25 whole entry): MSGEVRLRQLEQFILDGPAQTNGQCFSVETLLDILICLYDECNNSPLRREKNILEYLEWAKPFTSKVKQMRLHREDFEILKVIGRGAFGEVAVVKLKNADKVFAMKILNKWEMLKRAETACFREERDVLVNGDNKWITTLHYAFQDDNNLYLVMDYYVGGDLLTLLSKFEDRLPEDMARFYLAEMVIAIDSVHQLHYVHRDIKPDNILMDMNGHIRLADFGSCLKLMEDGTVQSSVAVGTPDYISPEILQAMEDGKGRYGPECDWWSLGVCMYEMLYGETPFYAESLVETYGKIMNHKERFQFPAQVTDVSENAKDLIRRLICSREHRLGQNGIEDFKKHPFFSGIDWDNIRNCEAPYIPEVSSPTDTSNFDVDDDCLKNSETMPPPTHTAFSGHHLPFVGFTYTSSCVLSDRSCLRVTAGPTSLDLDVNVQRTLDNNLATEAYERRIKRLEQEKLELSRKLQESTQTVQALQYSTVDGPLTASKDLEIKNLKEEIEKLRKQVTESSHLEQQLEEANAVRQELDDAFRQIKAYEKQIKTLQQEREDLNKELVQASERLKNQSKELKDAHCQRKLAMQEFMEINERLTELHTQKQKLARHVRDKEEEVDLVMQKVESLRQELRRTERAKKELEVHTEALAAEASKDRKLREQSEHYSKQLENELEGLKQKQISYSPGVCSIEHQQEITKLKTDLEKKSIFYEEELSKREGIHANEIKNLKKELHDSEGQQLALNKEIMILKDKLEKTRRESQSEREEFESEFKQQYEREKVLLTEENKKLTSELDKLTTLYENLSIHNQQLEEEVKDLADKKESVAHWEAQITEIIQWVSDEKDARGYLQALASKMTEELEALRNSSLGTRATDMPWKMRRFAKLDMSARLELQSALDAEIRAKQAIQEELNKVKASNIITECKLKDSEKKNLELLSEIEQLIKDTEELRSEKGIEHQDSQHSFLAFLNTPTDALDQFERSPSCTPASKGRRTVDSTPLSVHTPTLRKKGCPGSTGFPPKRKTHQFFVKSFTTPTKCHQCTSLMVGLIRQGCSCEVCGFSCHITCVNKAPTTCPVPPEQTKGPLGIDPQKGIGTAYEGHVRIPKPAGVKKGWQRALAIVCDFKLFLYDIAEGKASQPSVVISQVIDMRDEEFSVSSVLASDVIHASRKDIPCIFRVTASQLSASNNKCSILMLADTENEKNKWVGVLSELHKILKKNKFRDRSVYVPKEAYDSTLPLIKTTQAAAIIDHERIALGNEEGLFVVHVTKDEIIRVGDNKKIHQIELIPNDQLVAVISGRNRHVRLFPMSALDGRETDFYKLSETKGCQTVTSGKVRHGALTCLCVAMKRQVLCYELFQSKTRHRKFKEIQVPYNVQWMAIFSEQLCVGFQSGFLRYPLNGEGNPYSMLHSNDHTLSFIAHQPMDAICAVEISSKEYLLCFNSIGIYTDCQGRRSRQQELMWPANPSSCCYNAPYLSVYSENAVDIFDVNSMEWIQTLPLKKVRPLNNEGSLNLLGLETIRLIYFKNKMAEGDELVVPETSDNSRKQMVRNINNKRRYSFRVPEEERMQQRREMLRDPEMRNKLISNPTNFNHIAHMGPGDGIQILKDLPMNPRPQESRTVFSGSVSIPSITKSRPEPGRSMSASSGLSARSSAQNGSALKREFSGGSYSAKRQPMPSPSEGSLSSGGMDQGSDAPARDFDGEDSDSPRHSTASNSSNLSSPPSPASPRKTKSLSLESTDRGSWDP
Chain of Tyrosine-protein kinase Fer (P16591 whole entry): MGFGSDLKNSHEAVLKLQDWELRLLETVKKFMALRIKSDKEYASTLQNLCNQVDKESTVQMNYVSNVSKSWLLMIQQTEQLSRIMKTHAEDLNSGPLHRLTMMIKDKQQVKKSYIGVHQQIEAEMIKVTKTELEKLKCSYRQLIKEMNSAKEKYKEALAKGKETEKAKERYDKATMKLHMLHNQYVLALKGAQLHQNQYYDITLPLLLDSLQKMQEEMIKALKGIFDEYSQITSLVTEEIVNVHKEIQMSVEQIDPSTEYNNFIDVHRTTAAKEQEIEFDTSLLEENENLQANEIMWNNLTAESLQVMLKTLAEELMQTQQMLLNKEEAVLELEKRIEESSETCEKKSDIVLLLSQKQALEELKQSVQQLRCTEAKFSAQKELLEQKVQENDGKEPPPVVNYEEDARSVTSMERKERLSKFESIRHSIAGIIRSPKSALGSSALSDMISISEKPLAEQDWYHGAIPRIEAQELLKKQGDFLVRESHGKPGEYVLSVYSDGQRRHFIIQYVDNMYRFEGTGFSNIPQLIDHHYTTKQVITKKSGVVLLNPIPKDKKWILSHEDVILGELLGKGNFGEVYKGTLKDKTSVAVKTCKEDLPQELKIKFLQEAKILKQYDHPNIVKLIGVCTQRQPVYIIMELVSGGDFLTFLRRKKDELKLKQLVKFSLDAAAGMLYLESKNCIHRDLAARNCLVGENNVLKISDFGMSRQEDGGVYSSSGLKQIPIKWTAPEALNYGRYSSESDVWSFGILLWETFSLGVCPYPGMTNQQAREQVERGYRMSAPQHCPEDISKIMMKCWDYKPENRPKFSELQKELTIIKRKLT
Chain of Serine/threonine-protein kinase B-raf (P15056 whole entry): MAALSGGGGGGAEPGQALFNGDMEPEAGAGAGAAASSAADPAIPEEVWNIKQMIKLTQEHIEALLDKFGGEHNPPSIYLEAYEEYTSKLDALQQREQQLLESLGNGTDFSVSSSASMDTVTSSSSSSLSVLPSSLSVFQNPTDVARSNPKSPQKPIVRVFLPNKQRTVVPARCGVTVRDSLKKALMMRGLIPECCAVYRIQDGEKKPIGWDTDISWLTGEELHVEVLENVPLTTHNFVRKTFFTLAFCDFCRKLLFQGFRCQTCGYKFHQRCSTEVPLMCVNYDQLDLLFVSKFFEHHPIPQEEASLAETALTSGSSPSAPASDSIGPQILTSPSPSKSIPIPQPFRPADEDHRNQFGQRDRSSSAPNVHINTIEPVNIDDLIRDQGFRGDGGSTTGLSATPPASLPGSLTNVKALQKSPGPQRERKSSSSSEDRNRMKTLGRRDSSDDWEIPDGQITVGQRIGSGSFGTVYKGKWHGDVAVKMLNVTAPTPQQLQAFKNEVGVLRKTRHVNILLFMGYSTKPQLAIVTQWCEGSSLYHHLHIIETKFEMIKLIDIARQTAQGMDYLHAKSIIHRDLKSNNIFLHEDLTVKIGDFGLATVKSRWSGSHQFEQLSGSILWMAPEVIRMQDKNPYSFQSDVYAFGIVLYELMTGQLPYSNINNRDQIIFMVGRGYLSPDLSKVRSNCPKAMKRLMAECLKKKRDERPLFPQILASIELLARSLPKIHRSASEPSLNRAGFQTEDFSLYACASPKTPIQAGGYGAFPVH

In the case of `O=C(O)c1ccc2c(c1)nc(Nc1cccc(Cl)c1)c1ccncc12` [SILMITASERTIB], the Kd in [1], in assay [2], in [3], in [4], in assay [5] and in assay [6] was > 30 µM (inactive) throughout. Besides, the Kd (commonly the free concentration of one partner at which half of the binding sites on the other are occupied at equilibrium, for simple one-to-one binding) in assay [7] was > 30 µM (inactive); in assay [8], > 30 µM (inactive); in assay [9] it was 2.18 µM (active); in assay [10], 0.096 µM (active); on TGF-beta receptor type-1, > 30 µM (inactive); in assay [11] it was > 30 µM (inactive).

On to `c1cc(OCCN2CCCCC2)cc(-c2n[nH]c3ccc(-c4nc[nH]n4)cc23)c1` [CC-401], for which the Kd in assay [1] was > 30 µM (inactive); in assay [2] it was > 30 µM (inactive); in assay [3], > 30 µM (inactive); in assay [4], > 30 µM (inactive); in assay [5], 0.34 µM (active); in assay [6], > 30 µM (inactive). The Kd (in [7]; in assay [8]; in assay [9]; in assay [10]; on TGF-beta receptor type-1; in assay [11]) was > 30 µM (inactive) in each case.

Take `CCN1CCN(Cc2ccc(Nc3ncc(F)c(-c4cc(F)c5nc(C)n(C(C)C)c5c4)n3)nc2)CC1` [ABEMACICLIB]: the Kd in [1], in assay [2], in assay [3], in assay [4], in [5] and in assay [6] was > 30 µM (inactive) each time. Moreover, the Kd in assay [7] was > 30 µM (inactive); in assay [8] it was 1.62 µM (active); in [9], > 30 µM (inactive); in assay [10] it was 2.47 µM (active); at TGF-beta receptor type-1, > 30 µM (inactive); in assay [11], > 30 µM (inactive).

Regarding `Cc1c(Cn2c(C)nc3c(C(=O)O)cc(N4CCOCC4)cc32)cccc1C(F)(F)F` [GSK-2636771], the Kd in [1], in assay [2], in [3], in [4], in assay [5] and in [6] was > 30 µM (inactive) in each case. The Kd (in [7]; in assay [8]; in assay [9]; in assay [10]; at TGF-beta receptor type-1; in [11]) was > 30 µM (inactive) throughout.

Turning to `COc1cccc(Nc2ncnn3ccc(CN4CC[C@@H](N)[C@H](O)C4)c23)c1` [BMS-690514], the Kd in assay [1], in [2], in assay [3], in assay [4], in assay [5] and in [6] was > 30 µM (inactive) each time. Further, the Kd is > 30 µM (inactive) in assay [7]; > 30 µM (inactive) in assay [8]; > 30 µM (inactive) in assay [9]; 1.28 µM (active) in assay [10]; 1.23 µM (active) at TGF-beta receptor type-1; 0.282 µM (active) in assay [11].

With `C=CC(=O)Nc1cc(Nc2nccc(-c3cn(C)c4ccccc34)n2)c(OC)cc1N(C)CCN(C)C` [OSIMERTINIB], the Kd in [1], in assay [2], in assay [3], in [4], in [5] and in [6] was > 30 µM (inactive) in each case. Besides, the Kd (in [7]; in assay [8]; in [9]; in assay [10]; at TGF-beta receptor type-1; in [11]) was > 30 µM (inactive) each time.

Turning to `Cn1cc(-c2[nH]c3cc(NC(=O)[C@H](N)C4CCCCC4)cc4c3c2C=NNC4=O)cn1`, the Kd in assay [1], in [2], in assay [3], in assay [4], in assay [5] and in [6] was > 30 µM (inactive) in each case. The Kd (in [7]; in assay [8]; in assay [9]; in [10]; on TGF-beta receptor type-1; in [11]) was > 30 µM (inactive) throughout.

As to `COCCN1CCN(Cc2ccc(-c3n[nH]c4c3C(=O)c3c(NC(=O)NN5CCOCC5)cccc3-4)cc2)CC1` [RGB-286638], the Kd in assay [1] was > 30 µM (inactive); in assay [2], > 30 µM (inactive); in assay [3], 1.09 µM (active); in [4] it was > 30 µM (inactive); in assay [5] it was 0.37 µM (active); in assay [6] it was > 30 µM (inactive). The Kd in assay [7] is > 30 µM (inactive); in [8], > 30 µM (inactive); in assay [9], > 30 µM (inactive); in assay [10], > 30 µM (inactive); at TGF-beta receptor type-1, > 30 µM (inactive); in assay [11] it was 1.11 µM (active).

Consider `C[C@@H]1COC(Nc2ccc3ncnc(Nc4ccc(OCc5nccs5)c(Cl)c4)c3c2)=N1` [VARLITINIB], for which the Kd in [1], in assay [2], in assay [3], in assay [4], in assay [5] and in assay [6] was > 30 µM (inactive) throughout. The Kd is > 30 µM (inactive) in [7]; > 30 µM (inactive) in [8]; 0.088 µM (active) in [9]; > 30 µM (inactive) in [10]; > 30 µM (inactive) at TGF-beta receptor type-1; > 30 µM (inactive) in assay [11].
